Results reported in US7507717B2 (Xenome Ltd., priority 2002, dated 2009).
pIC50: −log10 of the molar value. Residues, ends and D or L forms follow the SMILES beside them.

Tests used:
[1] = target: T1, human noradrenaline transporter (hNET) (Homo sapiens, UniProt P23975); assay: cell-based
T1 construct: expressed in transfected cells; host or cells: COS-7 cells (ATCC), transient transfection with metafectene

[2] = target: T1, human noradrenaline transporter (hNET); assay: biochemical; type: binding; conditions: for pIC50: Av IC50 Displacement of 3H-nisoxetine from hNET

T1 sequence (P23975 whole entry): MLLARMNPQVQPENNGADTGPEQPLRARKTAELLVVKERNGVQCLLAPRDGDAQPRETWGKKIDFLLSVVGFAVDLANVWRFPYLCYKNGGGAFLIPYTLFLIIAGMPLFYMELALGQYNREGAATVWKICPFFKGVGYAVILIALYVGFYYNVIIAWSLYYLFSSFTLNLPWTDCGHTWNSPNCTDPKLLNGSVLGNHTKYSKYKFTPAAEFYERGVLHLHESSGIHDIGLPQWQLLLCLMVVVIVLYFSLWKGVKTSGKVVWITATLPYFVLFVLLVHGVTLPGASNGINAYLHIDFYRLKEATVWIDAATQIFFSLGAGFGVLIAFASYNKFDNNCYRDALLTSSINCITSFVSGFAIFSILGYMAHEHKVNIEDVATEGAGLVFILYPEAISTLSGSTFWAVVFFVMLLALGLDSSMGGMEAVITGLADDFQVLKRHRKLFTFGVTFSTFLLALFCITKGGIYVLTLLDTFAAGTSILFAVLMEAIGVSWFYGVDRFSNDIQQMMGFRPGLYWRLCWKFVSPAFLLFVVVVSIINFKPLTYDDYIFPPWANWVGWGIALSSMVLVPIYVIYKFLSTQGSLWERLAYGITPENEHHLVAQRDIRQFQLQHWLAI

Compound	pIC50 [1]	pIC50 [2]	Av IC50 Displacement of 3H-nisoxetine from hNET [2]
CC(C)C[C@@H]1NC(=O)[C@H](CCCCN)NC(=O)[C@H](Cc2ccc(O)cc2)NC(=O)CNC(=O)[C@@H]2CSSC[C@H](NC1=O)C(=O)N[C@@H](Cc1c[nH]c3ccccc13)C(=O)N1CCC[C@H]1C(=O)N[C@H](C(N)=O)CSSC[C@H](NC(=O)[C@@H](NC(=O)[C@H](CC(=O)O)NC(=O)[C@H](CCCCN)NC(=O)[C@@H](N)Cc1c[nH]c3ccccc13)C(C)C)C(=O)N2 [compound 92] (HELM PEPTIDE1{W.K.D.V.C.C.G.Y.K.L.C.W.P.C.[am]}$PEPTIDE1,PEPTIDE1,5:R3-14:R3|PEPTIDE1,PEPTIDE1,6:R3-11:R3$$$V2.0)	7.44	6.39	
CC(C)C[C@@H]1NC(=O)[C@H](CCCCN)NC(=O)[C@H](Cc2ccc(O)cc2)NC(=O)CNC(=O)[C@@H]2CSSC[C@H](NC1=O)C(=O)N[C@@H](Cc1c[nH]cn1)C(=O)N1CCC[C@H]1C(=O)N[C@H](C(N)=O)CSSC[C@H](NC(=O)[C@@H](NC(=O)CNC(=O)[C@H](CC(N)=O)NC(=O)[C@@H](N)Cc1c[nH]c3ccccc13)C(C)C)C(=O)N2 [compound 82]	5.50	6.53	
CC(C)C[C@@H]1NC(=O)[C@H](CCCCN)NC(=O)[C@H](Cc2ccc(O)cc2)NC(=O)CNC(=O)[C@@H]2CSSC[C@H](NC1=O)C(=O)N[C@H](C(N)=O)CSSC[C@H](NC(=O)[C@@H](N)C(C)C)C(=O)N2 [compound 148] (HELM PEPTIDE1{V.C.C.G.Y.K.L.C.C.[am]}$PEPTIDE1,PEPTIDE1,2:R3-9:R3|PEPTIDE1,PEPTIDE1,3:R3-8:R3$$$V2.0)	6.46	5.50	
CC(C)[C@H](NC(=O)CNC(=O)[C@@H](N)CC(N)=O)C(=O)N[C@H]1CSSC[C@@H](C(N)=O)NC(=O)[C@@H]2CCCN2C(=O)[C@H](Cc2c[nH]cn2)NC(=O)[C@@H]2CSSC[C@H](NC1=O)C(=O)NCC(=O)N[C@@H](Cc1ccc(O)cc1)C(=O)N[C@@H](CCCCN)C(=O)N[C@@H](CCCCN)C(=O)N2 [compound 196] (HELM PEPTIDE1{N.G.V.C.C.G.Y.K.K.C.H.P.C.[am]}$PEPTIDE1,PEPTIDE1,4:R3-13:R3|PEPTIDE1,PEPTIDE1,5:R3-10:R3$$$V2.0)		3.74	
CC(C)C[C@@H]1NC(=O)[C@H](CCCCN)NC(=O)[C@H](Cc2ccc(O)cc2)NC(=O)CNC(=O)[C@@H]2CSSC[C@H](NC1=O)C(=O)N[C@@H](CCCNC(=N)N)C(=O)N[C@@H](C)C(=O)N[C@H](C(N)=O)CSSC[C@H](NC(=O)[C@@H](NC(=O)CNC(=O)[C@H](CC(N)=O)NC(=O)[C@@H](N)Cc1c[nH]c3ccccc13)C(C)C)C(=O)N2 [compound 69] (HELM PEPTIDE1{W.N.G.V.C.C.G.Y.K.L.C.R.A.C.[am]}$PEPTIDE1,PEPTIDE1,5:R3-14:R3|PEPTIDE1,PEPTIDE1,6:R3-11:R3$$$V2.0)		6.66	
YNGVCCGYWLCHPC [compound 211]			−2.00
CC(C)C[C@@H]1NC(=O)[C@H](CCCCN)NC(=O)[C@H](Cc2ccc(O)cc2)NC(=O)CNC(=O)[C@@H]2CSSC[C@H](NC1=O)C(=O)N[C@@H](CCCNC(=N)N)C(=O)N1CCC[C@H]1C(=O)N[C@H](C(N)=O)CSSC[C@H](NC(=O)[C@@H](NC(=O)CNC(=O)[C@H](CC(N)=O)NC(=O)[C@@H](N)Cc1ccc(O)cc1)C(C)C)C(=O)N2 [compound 89]	6.95	6.47	
CC(C)C[C@@H]1NC(=O)[C@H](CCCCN)NC(=O)[C@H](Cc2ccc(O)cc2)NC(=O)CNC(=O)[C@@H]2CSSC[C@H](NC1=O)C(=O)N[C@@H](CCCNC(=N)N)C(=O)N[C@@H](C)C(=O)N[C@H](C(N)=O)CSSC[C@H](NC(=O)[C@@H](NC(=O)CNC(=O)[C@H](CC(N)=O)NC(=O)[C@@H](N)Cc1ccc(O)cc1)C(C)C)C(=O)N2 [compound 81]		6.53	
CC(C)C[C@H](NC(=O)[C@H](CC(=O)O)NC(=O)[C@H](CCCCN)NC(=O)[C@@H](N)Cc1c[nH]c2ccccc12)C(=O)N[C@H]1CSSC[C@@H](C(N)=O)NC(=O)[C@@H]2CCCN2C(=O)[C@H](Cc2c[nH]cn2)NC(=O)[C@@H]2CSSC[C@H](NC1=O)C(=O)NCC(=O)N[C@@H](Cc1ccc(O)cc1)C(=O)N[C@@H](CCCCN)C(=O)N[C@@H](CC(C)C)C(=O)N2 [compound 85] (HELM PEPTIDE1{W.K.D.L.C.C.G.Y.K.L.C.H.P.C.[am]}$PEPTIDE1,PEPTIDE1,5:R3-14:R3|PEPTIDE1,PEPTIDE1,6:R3-11:R3$$$V2.0)	7.05	6.51	
CC(C)C[C@@H]1NC(=O)[C@H](CCCCN)NC(=O)[C@H](Cc2ccc(O)cc2)NC(=O)CNC(=O)[C@@H]2CSSC[C@H](NC1=O)C(=O)N[C@@H](Cc1c[nH]cn1)C(=O)N[C@@H](CCCCN)C(=O)N[C@H](C(N)=O)CSSC[C@H](NC(=O)[C@@H](NC(=O)CNC(=O)[C@@H](N)CC(N)=O)C(C)C)C(=O)N2 [compound 117] (HELM PEPTIDE1{N.G.V.C.C.G.Y.K.L.C.H.K.C.[am]}$PEPTIDE1,PEPTIDE1,4:R3-13:R3|PEPTIDE1,PEPTIDE1,5:R3-10:R3$$$V2.0)		5.94	
CC(C)C[C@H](NC(=O)CNC(=O)[C@H](CCCNC(=N)N)NC(=O)[C@@H](N)Cc1c[nH]c2ccccc12)C(=O)N[C@H]1CSSC[C@@H](C(N)=O)NC(=O)[C@H](C)NC(=O)[C@H](CCCNC(=N)N)NC(=O)[C@@H]2CSSC[C@H](NC1=O)C(=O)NCC(=O)N[C@@H](Cc1ccc(O)cc1)C(=O)N[C@@H](CCCCN)C(=O)N[C@@H](CC(C)C)C(=O)N2 [compound 78]		6.56	
CC(C)C[C@@H]1NC(=O)[C@H](Cc2ccc(O)cc2)NC(=O)CNC(=O)[C@@H]2CSSC[C@H](NC(=O)[C@H](CC(C)C)NC1=O)C(=O)N[C@@H](Cc1c[nH]cn1)C(=O)N1CCC[C@H]1C(=O)N[C@H](C(N)=O)CSSC[C@H](NC(=O)[C@@H](NC(=O)CNC(=O)[C@H](CC(N)=O)NC(=O)[C@@H](N)Cc1ccc(O)cc1)C(C)C)C(=O)N2 [compound 174] (HELM PEPTIDE1{Y.N.G.V.C.C.G.Y.L.L.C.H.P.C.[am]}$PEPTIDE1,PEPTIDE1,5:R3-14:R3|PEPTIDE1,PEPTIDE1,6:R3-11:R3$$$V2.0)		4.76	
CC(C)C[C@@H]1NC(=O)[C@H](CCCCN)NC(=O)[C@H](Cc2ccc(O)cc2)NC(=O)CNC(=O)[C@@H]2CSSC[C@H](NC1=O)C(=O)N[C@@H](Cc1c[nH]cn1)C(=O)N1CCC[C@H]1C(=O)N[C@H](C(N)=O)CSSC[C@H](NC(=O)[C@@H](NC(=O)CNC(=O)[C@@H](N)CC(N)=O)C(C)C)C(=O)N2 [compound 146]	6.13	5.51	
YNGVCCGYKDCHPC [compound 209]			−2.00
CC(C)C[C@@H]1NC(=O)[C@H](CCCCN)NC(=O)[C@H](Cc2ccc(O)cc2)NC(=O)CNC(=O)[C@@H]2CSSC[C@H](NC1=O)C(=O)N[C@@H](CCCNC(=N)N)C(=O)N1CCC[C@H]1C(=O)N[C@H](C(N)=O)CSSC[C@H](NC(=O)[C@@H](NC(=O)CNC(=O)[C@H](CC(N)=O)NC(=O)[C@@H](N)Cc1ccc(O)cc1)C(C)C)C(=O)N2 [compound 84]		6.52	
CC(C)C[C@@H]1NC(=O)[C@H](CCCCN)NC(=O)[C@H](Cc2ccc(O)cc2)NC(=O)CNC(=O)[C@@H]2CSSC[C@H](NC1=O)C(=O)N[C@@H](Cc1c[nH]cn1)C(=O)N[C@@H](C)C(=O)N[C@H](C(N)=O)CSSC[C@H](NC(=O)[C@@H](NC(=O)CNC(=O)[C@H](CCCNC(=N)N)NC(=O)[C@@H](N)Cc1c[nH]c3ccccc13)C(C)C)C(=O)N2 [compound 54]		6.80	
CC(C)C[C@H](NC(=O)CNC(=O)[C@@H](N)CC(N)=O)C(=O)N[C@H]1CSSC[C@@H](C(N)=O)NC(=O)[C@@H]2CCCN2C(=O)[C@H](Cc2c[nH]cn2)NC(=O)[C@@H]2CSSC[C@H](NC1=O)C(=O)NCC(=O)N[C@@H](Cc1ccc(O)cc1)C(=O)N[C@@H](CCCCN)C(=O)N[C@@H](CC(C)C)C(=O)N2 [compound 97]		6.30	
